Reference: ChEMBL document CHEMBL1201862, “PubChem BioAssay data set” (2004)
The source made the active and inactive calls.

Legend:
[1] = target: Peroxisome proliferator-activated receptor gamma/Nuclear receptor coactivator 3 (Homo sapiens, UniProt P37231); experiment: TR-FRET dose response biochemical High Throughput Screening assay for agonists of the steroid receptor coactivator 3 (SRC-3) recruitment by the peroxisome proliferator-activated receptor gamma (PPAR gamma): non-selective agonists. [Related pubchem assays: 1301 (Confirmation screen.), 1048 (Primary screen.)]; format: functional
[2] = target: Peroxisome proliferator-activated receptor gamma/Nuclear receptor coactivator 2 (Homo sapiens, UniProt P37231); experiment: (§1) TR-FRET dose response biochemical High Throughput Screening assay for agonists of the steroid receptor coactivator 2 (SRC-2) recruitment by the peroxisome proliferator-activated receptor gamma (PPAR gamma): non-selective agonists. [Related pubchem assays: 1297, 1032 ]; format: functional
[3] = target: Peroxisome proliferator-activated receptor gamma/Nuclear receptor corepressor 2 (Homo sapiens, UniProt P37231+Q9Y618); experiment: Counterscreen for NR2E3 inverse agonists: TR-FRET-based biochemical high throughput dose response assay to identify inverse agonists of the interaction between peroxisome proliferator-activated receptor gamma (PPARg) and nuclear receptor co-repressor 2 (NCOR2).; format: functional
[4] = target: Photoreceptor-specific nuclear receptor (Homo sapiens, UniProt Q9Y5X4); experiment: ligands suppressing NR2E3 nuclear receptor activity – biochemical, TR-FRET, dose response (AID 463256); format: functional
[5] = target: Peroxisome proliferator-activated receptor gamma/Nuclear receptor coactivator 1 (Homo sapiens, UniProt P37231); experiment: as §1, with “1 (SRC-1)” for “2 (SRC-2)”, “assays (depositor defined):AID1300, AID1808, AID504735, AID631]” for “assays: 1297, 1032 ]”; format: protein assay
[6] = target: T1, Kappa-type opioid receptor (Homo sapiens, UniProt P41145); experiment: kappa opioid receptor activation potency – imaging, image-based, SAR follow-up (AID 2359); format: functional
[7] = target: T1, Kappa-type opioid receptor; experiment: kappa opioid receptor blockers, image-based, SAR follow-up (AID 2348); format: functional
[8] = target: T2, Delta-type opioid receptor (Homo sapiens, UniProt P41143); experiment: delta opioid receptor blockers – image-based, SAR follow-up (AID 2357); format: functional
[9] = target: T2, Delta-type opioid receptor; experiment: DOR agonists, SAR follow-up, image-based (AID 2370); format: functional
Mu-type opioid receptor [10] = target: T3, Mu-type opioid receptor (Homo sapiens, UniProt P35372); experiment: mu opioid receptor activators, image-based, SAR follow-up (AID 2352); format: functional
Mu-type opioid receptor [11] = target: T3, Mu-type opioid receptor; experiment: mu opioid receptor blockers – image-based, SAR follow-up (AID 2420); format: functional;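 note: compounds added before stimulation of receptor with agonist DAMGO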
[12] = target: T1, Kappa-type opioid receptor; experiment: kappa opioid receptor blockers, cell-based, luminescence, beta-arrestin, SAR follow-up (AID 2285); format: functional
[13] = Trypanosoma cruzi growth suppression in host cells – NIH3T3 host cells, beta-gal luminescence, confirmation (AID 2044); format: functional, cell-based;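 note: intracellular parasites grown in NIH/3T3 mouse fibroblasts as host cells; luminescent beta-galactosidase reporter signal from transgenic T. cruzi replicating inside host cells; inhibitors lower the luminescence signal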
[14] = non-specific 3'UTR reporter inhibition in Clone20-Shn3RL – cell-based, Renilla luciferase, cherry-picked, counter-screen for Shn3 inhibitor project, dose response (AID 624133); format: functional
[15] = target: T4, Polyadenylate-binding protein 1 (Homo sapiens, UniProt P11940); experiment: MLLE domain peptide-binding blockers, IC50 – biochemical, fluorescence polarization, FITC-PAM2 peptide, dose response (AID 602259); format: functional; settings: read-out: IC50_Mean
[16] = loss of viability in HepG2 cells – cell-based, CellTiter-Glo, cherry-picked, cytotoxicity control for Shn3 inhibitor project, dose response (AID 624134); format: functional
[17] = target: T1, Kappa-type opioid receptor; format: functional
Streptococcus = experiment: GAS UMAA2166 growth inhibition – luminescence, BacTiterGlo, counter-screen for streptokinase expression inhibitor project, dose response (AID 1915); format: functional, organism-based;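 note: potency for reduction of bacterial viability or growth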
[18] = target: T4, Polyadenylate-binding protein 1; experiment: MLLE binding blockers, Cy5 peptide tracer – biochemical, fluorescence polarization, Cy5-PAM2 peptide, secondary, miRNA deadenylation inhibitor project, dose response (AID 602260); format: functional; settings: read-out: IC50_Mean
Beta-galactosidase = Beta-galactosidase (Escherichia coli, UniProt Q8VNN2); format: functional
Streptokinase A = target: T5, Streptokinase A (Streptococcus pyogenes serotype M1, UniProt P10520); experiment: viability-normalized secreted streptokinase activity reduction – plasminogen activation absorbance, OD405, dose response (AID 1914); format: functional, Streptococcus pyogenes M1 GAS;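 note: secreted streptokinase activity via plasminogen activation per viability signal from cell pellet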
T5 sequence (P10520 whole entry): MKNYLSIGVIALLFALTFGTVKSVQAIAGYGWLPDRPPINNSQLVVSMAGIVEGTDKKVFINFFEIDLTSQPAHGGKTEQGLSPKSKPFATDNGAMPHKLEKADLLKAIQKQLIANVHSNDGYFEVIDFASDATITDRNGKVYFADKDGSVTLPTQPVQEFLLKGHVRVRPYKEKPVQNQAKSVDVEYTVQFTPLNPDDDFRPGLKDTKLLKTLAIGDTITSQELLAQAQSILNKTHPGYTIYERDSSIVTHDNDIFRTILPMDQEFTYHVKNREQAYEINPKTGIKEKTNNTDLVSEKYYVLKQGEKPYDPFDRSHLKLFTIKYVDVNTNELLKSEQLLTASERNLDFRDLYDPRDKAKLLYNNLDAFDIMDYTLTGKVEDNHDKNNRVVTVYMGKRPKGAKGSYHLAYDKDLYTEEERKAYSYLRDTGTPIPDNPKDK

[19] = tested on: Streptococcus sp. 'group A'; experiment: Streptococcus pyogenes SK(-)GAS viability under kanamycin – luminescence, BacTiterGlo, confirmation, counter-screen for streptokinase expression inhibitor project, dose response (AID 1900); format: functional, organism-based
[20] = target: T1, Kappa-type opioid receptor; format: functional; remark: listed apart in the source
[21] = NIH3T3 cell viability loss – ATP luminescence, mouse fibroblasts, counter-screen, dose response (AID 2010); format: functional, cell-based;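 note: cells exposed to compound for about 90 hours before reading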

T2 sequence (P41143 whole entry): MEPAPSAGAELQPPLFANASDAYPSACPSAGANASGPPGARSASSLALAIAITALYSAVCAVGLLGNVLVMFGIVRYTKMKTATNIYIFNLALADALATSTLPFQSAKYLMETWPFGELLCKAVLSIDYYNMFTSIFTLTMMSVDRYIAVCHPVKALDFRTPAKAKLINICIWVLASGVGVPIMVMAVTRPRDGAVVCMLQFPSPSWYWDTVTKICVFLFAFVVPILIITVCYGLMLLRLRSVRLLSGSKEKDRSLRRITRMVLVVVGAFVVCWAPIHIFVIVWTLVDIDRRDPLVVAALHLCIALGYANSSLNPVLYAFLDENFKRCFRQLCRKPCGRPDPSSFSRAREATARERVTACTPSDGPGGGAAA
T1 sequence (P41145 whole entry): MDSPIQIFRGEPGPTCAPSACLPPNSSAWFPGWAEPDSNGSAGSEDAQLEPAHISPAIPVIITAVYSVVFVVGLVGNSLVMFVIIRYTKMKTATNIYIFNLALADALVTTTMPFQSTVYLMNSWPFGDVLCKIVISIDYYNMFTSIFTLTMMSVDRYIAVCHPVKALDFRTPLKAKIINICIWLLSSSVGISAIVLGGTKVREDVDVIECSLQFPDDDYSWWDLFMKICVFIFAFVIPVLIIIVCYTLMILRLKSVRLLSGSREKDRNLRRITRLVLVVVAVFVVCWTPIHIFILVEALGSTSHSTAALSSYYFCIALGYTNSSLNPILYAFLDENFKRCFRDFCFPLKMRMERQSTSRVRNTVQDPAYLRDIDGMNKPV
T3 sequence (P35372 whole entry): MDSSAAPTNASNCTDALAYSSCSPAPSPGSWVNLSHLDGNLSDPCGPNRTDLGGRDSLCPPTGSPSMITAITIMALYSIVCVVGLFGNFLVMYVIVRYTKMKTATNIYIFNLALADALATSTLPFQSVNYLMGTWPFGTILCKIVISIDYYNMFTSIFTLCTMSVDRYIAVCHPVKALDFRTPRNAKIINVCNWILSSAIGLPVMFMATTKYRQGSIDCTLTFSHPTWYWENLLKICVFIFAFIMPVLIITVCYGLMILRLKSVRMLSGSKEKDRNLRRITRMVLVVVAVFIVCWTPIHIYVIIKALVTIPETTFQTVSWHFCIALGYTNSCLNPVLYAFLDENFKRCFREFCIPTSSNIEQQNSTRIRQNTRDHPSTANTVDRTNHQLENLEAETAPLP
T4 sequence (P11940 whole entry, the tested form may be a part): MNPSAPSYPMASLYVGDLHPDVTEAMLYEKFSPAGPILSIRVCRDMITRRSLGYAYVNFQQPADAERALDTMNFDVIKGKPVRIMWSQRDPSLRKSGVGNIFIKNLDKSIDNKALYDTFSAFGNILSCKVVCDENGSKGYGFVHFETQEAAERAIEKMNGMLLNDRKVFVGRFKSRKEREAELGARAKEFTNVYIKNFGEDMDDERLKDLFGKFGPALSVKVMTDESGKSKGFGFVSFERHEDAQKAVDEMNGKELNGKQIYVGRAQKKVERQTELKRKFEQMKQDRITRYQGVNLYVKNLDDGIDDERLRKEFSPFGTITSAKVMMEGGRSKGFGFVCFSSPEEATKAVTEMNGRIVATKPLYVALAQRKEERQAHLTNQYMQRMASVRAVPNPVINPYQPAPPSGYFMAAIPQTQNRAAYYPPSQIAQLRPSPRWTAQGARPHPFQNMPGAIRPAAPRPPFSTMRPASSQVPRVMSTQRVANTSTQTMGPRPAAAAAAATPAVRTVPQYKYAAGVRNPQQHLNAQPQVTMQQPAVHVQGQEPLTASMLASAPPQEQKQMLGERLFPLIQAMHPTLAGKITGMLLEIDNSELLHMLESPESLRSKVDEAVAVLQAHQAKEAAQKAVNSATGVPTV
Peroxisome proliferator-activated receptor gamma/Nuclear receptor coactivator 2, sequence (P37231 whole entry): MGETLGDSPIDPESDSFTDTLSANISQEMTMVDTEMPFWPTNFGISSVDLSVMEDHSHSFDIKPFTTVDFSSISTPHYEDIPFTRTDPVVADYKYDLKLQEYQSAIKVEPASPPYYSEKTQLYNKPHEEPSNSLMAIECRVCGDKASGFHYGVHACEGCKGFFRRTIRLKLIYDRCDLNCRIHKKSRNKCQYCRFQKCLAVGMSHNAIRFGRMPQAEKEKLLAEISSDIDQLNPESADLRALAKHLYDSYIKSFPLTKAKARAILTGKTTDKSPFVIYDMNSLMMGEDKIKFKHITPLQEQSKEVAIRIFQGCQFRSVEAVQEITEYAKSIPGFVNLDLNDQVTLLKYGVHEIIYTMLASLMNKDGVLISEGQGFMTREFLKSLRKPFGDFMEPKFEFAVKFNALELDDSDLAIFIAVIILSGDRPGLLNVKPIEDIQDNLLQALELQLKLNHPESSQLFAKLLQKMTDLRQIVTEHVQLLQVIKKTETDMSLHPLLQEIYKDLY
Peroxisome proliferator-activated receptor gamma/Nuclear receptor coactivator 2, sequence (Q15596 whole entry, further chain): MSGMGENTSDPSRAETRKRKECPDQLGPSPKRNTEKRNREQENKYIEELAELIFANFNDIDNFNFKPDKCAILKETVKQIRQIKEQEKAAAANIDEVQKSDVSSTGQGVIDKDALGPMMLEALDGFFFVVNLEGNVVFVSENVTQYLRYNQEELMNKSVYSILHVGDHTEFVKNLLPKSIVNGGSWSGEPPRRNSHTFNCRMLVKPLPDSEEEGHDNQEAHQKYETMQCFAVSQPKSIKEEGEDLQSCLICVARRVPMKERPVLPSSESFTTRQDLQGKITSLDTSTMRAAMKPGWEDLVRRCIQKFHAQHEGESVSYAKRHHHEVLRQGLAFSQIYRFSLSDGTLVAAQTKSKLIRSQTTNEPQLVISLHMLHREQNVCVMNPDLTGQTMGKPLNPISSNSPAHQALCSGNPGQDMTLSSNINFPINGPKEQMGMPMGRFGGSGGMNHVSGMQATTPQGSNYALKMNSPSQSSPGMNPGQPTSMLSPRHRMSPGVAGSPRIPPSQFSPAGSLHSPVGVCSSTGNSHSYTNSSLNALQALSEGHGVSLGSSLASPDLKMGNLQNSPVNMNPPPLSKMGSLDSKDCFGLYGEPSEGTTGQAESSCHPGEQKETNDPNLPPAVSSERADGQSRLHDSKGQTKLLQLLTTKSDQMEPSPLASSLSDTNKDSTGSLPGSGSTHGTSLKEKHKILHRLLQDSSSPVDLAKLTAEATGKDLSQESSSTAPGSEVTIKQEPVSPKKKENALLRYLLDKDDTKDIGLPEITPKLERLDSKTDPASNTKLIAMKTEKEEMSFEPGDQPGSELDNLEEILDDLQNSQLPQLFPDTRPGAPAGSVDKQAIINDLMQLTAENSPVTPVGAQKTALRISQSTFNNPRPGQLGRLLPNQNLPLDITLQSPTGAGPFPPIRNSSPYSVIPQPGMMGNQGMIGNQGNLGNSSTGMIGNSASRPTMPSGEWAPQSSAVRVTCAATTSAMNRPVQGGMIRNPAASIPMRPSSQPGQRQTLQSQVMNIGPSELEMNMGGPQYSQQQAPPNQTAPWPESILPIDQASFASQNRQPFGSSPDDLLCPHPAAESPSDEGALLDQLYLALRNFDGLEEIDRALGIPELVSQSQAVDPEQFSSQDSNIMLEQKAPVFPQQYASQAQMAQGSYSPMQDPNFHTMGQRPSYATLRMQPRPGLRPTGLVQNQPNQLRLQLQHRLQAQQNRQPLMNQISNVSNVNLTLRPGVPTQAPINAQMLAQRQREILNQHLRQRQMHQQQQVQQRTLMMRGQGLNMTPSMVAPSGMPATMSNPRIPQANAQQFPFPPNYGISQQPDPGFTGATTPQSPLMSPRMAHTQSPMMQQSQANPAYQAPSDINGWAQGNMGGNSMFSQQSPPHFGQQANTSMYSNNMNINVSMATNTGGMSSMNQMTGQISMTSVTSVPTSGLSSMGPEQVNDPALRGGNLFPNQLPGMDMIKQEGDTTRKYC
Photoreceptor-specific nuclear receptor, sequence (Q9Y5X4 whole entry): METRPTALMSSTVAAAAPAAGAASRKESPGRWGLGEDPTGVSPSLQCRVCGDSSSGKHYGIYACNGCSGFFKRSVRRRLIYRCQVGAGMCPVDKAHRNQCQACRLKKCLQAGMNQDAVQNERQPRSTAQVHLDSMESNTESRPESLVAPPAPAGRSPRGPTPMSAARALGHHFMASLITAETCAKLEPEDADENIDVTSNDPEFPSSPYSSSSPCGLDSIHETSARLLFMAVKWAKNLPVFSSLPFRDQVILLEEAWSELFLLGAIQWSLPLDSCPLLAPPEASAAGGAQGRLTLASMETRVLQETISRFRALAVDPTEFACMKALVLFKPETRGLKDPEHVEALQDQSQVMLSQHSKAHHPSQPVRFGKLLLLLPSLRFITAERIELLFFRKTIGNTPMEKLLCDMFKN

Structure (SMILES) | EC50 [1] | EC50 [2] | EC50 [5] | EC50 [6] | IC50 [7] | IC50 [8] | EC50 [9] | EC50 (Mu-type opioid receptor [10]) | IC50 (Mu-type opioid receptor [11]) | IC50 [12] | also measured
COc1ccc(-c2cn3c(C)c(C(=O)Nc4cc(NC(C)=O)ccc4OC)sc3n2)cc1 | > 79.4 µM (not active) | 15 µM (not active) | 12.9 µM (inactive) |  |  |  |  |  |  |  | IC50 [3]: 18 µM (not active); IC50 [4]: 23.2 µM (not active)
Cc1ccc(S(=O)(=O)NCc2ccc(C(=O)N3CCN(Cc4ccccc4)CC3)cc2)cc1 |  |  |  | > 32 µM (inactive) | > 32 µM (inactive) | > 32 µM (inactive) | > 32 µM (inactive) | > 32 µM (inactive) | > 32 µM (inactive) | > 10 µM (inactive) | 
Cn1c(=O)cc(SCC(=O)NCc2ccco2)c2ccccc21 | > 79.4 µM (not active) | > 79.4 µM (not active) | > 79.4 µM (inactive) |  |  |  |  |  |  |  | 
O=C(NC(NC(=S)Nc1c(Cl)cc(Cl)cc1Cl)C(Cl)(Cl)Cl)OCc1ccccc1 (centres undefined) |  |  |  | > 32 µM (inactive) | 0.517 µM (active) | > 32 µM (inactive) | > 32 µM (inactive) | > 32 µM (inactive) | > 32 µM (inactive) | 0.846 µM (active) | EC50 [13]: 1.65 µM (active); AC50 [14]: 2.04 µM (active); IC50 [15]: > 66 µM (inactive); AC50 [16]: 18.5 µM (active); IC50 [17]: 1.88 µM (active); EC50 (Streptococcus): 39.3 µM (inconclusive); IC50 [18]: > 66 µM (inactive); EC50 (Beta-galactosidase): > 31.5 µM (inactive); EC50 (Streptokinase A): 1.83 µM (active); EC50 [19]: 562 nM (active); IC50 [20]: 630 nM; EC50 [21]: > 60 µM (not active)
